Reference: PMC11844072, “Novel 5,6-dichlorobenzimidazole derivatives as dual BRAFWT and BRAFV600E inhibitors: design, synthesis, anti-cancer activity and molecular dynamics simulations” (BMC Chemistry, 2025)

Assays:
RXF 393 = assay: NCI 60 single concentration growth inhibition; type: cell-based, human; details: Homo sapiens, RXF 393, Renal cancer, read-out: GI%
Protocol: (§1) The synthesized dichlorobenzimidazoles 10a–p were assayed for their influence on divers cancer cell lines according to the method presented in the Additional file A.
(§2) 5. Screening of cytotoxic activity against a panel of sixty human tumor cell lines
(§3) The selected compounds by NCI were evaluated for their anticancer activity in a two-stage process. First, these compounds were screened against the full NCI 60 cell lines panel at a single high dose of 10 µM. Then, the output from the single dose screen is reported as a mean graph. […]
(§4) at five different minimal concentrations.
(§5) Assay protocol. The human tumor cell lines of the cancer screening panel are grown in RPMI 1640 medium containing 5% fetal bovine serum and 2 mM L-glutamine. For a typical screening experiment, cells are inoculated into 96 well microtiter plates in 100 µL at plating densities ranging from 5000 to 40,000 cells/well depending on the doubling time of individual cell lines. After cell inoculation, the microtiter plates are incubated at 37 °C, 5% CO 2, 95% air and 100% relative humidity for 24 h prior to addition of the experimental drugs.
(§6) After 24 h, two plates of each cell line are fixed in situ with TCA, to represent a measurement of the cell population for each cell line at the time of drug addition (Tz). The experimental drugs are solubilized in dimethyl sulfoxide at 400-fold the desired final maximum test concentration and stored frozen prior to use. At the time of drug addition, an aliquot of frozen concentrate is thawed and diluted to twice the desired final maximum test concentration with complete medium containing 50 µg/mL gentamicin. Additional four, 10-fold or ½ log serial dilutions are made to provide a total of five drug concentrations plus control.
(§7) Aliquots of […] of these different drug dilutions are added to the appropriate microtiter wells already containing […] of medium, resulting in the required final drug concentrations.
(§8) Following drug addition, the plates are incubated for an additional 48 h at 37 °C, 5% CO 2, 95% air, and 100% relative humidity. For adherent cells, the assay is terminated by the addition of cold TCA.
(§9) Cells are fixed in situ by the gentle addition of 50 µL of cold 50% (w/v) TCA (final concentration, 10% TCA) and incubated for 60 min at 4 °C. The supernatant is discarded, and the plates are washed five times with tap water and air dried. Sulforhodamine B (SRB) solution ([…]) at 0.4% (w/v) in 1% acetic acid is added to each well, and plates are incubated for 10 min at room temperature. After staining, unbound dye is removed by washing five times with 1% acetic acid and the plates are air dried. Bound stain is subsequently solubilized with 10 mM trizma base, and the absorbance is read on an automated plate reader at a wavelength of 515 nm. For suspension cells, the methodology is […]
(§10) the same except that the assay is terminated by fixing settled cells at the bottom of the wells by gently adding 50 µl of 80% TCA (final concentration, 16% TCA). Using the seven absorbance measurements [time zero, (Tz), control growth, (C), and test growth in the presence of drug at the five concentration levels (Ti)], the percentage growth is calculated at each of the drug concentrations […]
(§11) Percentage growth inhibition is calculated as: [(Ti Tz)/(C–Tz)] x 100 for concentrations for which Ti>/=Tz and [(Ti-Tz)/Tz] x 100 for concentrations for which Ti < Tz.
(§12) Three dose response parameters are calculated for each experimental agent. Growth […]
(§13) concentration resulting in a 50% reduction in the net protein increase (as measured by SRB staining) in control cells during the drug incubation. The drug concentration resulting in total growth inhibition (TGI) is calculated from Ti = Tz. […]
(§14) reduction in the measured protein at the end of the drug treatment as compared to that at the beginning) indicating a net loss of cells following treatment is calculated from [(Ti–Tz)/Tz] x 100 =
(§15) _50. Values are calculated for each of these three parameters if the level of activity is reached; […]

UACC-257 = assay: NCI 60 single concentration growth inhibition; type: cell-based, human; details: Homo sapiens, UACC-257, Melanoma, read-out: GI%
Protocol: as §1, §2, §3, §4, §5, §6, §7, §8, §9, §10, §11, §12, §13, §14, §15

EKVX = assay: NCI 60 single concentration growth inhibition; type: cell-based, human; details: Homo sapiens, Non-small cell lung cancer, read-out: GI%
Protocol: as §1, §2, §3, §4, §5, §6, §7, §8, §9, §10, §11, §12, §13, §14, §15

MCF7 = assay: NCI 60 single concentration growth inhibition; type: cell-based, human; details: Homo sapiens, MCF7, Breast cancer, read-out: GI%
Protocol: as §1, §2, §3, §4, §5, §6, §7, §8, §9, §10, §11, §12, §13, §14, §15

BT-549 = assay: NCI 60 single concentration growth inhibition; type: cell-based, human; details: Homo sapiens, BT-549, Breast cancer, read-out: GI%
Protocol: as §1, §2, §3, §4, §5, §6, §7, §8, §9, §10, §11, §12, §13, §14, §15

T-47D = assay: NCI 60 single concentration growth inhibition; type: cell-based, human; details: Homo sapiens, T47D, Breast cancer, read-out: GI%
Protocol: as §1, §2, §3, §4, §5, §6, §7, §8, §9, §10, §11, §12, §13, §14, §15

MOLT-4 = assay: NCI 60 single concentration growth inhibition; type: cell-based, human; details: Homo sapiens, MOLT-4, Leukemia, read-out: GI%
Protocol: as §1, §2, §3, §4, §5, §6, §7, §8, §9, §10, §11, §12, §13, §14, §15

OVCAR-8 = assay: NCI 60 single concentration growth inhibition; type: cell-based, human; details: Homo sapiens, OVCAR-8, Ovarian cancer, read-out: GI%
Protocol: as §1, §2, §3, §4, §5, §6, §7, §8, §9, §10, §11, §12, §13, §14, §15

SN12C = assay: NCI 60 single concentration growth inhibition; type: cell-based, human; details: Homo sapiens, Renal cancer, read-out: GI%
Protocol: as §1, §2, §3, §4, §5, §6, §7, §8, §9, §10, §11, §12, §13, §14, §15

RPMI-8226 = assay: NCI 60 single concentration growth inhibition; type: cell-based, human; details: Homo sapiens, RPMI-8226, Leukemia, read-out: GI%
Protocol: as §1, §2, §3, §4, §5, §6, §7, §8, §9, §10, §11, §12, §13, §14, §15

786-0 = assay: NCI 60 single concentration growth inhibition; type: cell-based, human; details: Homo sapiens, 786-0, Renal cancer, read-out: GI%
Protocol: as §1, §2, §3, §4, §5, §6, §7, §8, §9, §10, §11, §12, §13, §14, §15

M14 = assay: NCI 60 single concentration growth inhibition; type: cell-based, human; details: Homo sapiens, M14, Melanoma, read-out: GI%
Protocol: as §1, §2, §3, §4, §5, §6, §7, §8, §9, §10, §11, §12, §13, §14, §15

NCI-H226 = assay: NCI 60 single concentration growth inhibition; type: cell-based, human; details: Homo sapiens, NCI-H226, Non-small cell lung cancer, read-out: GI%
Protocol: as §1, §2, §3, §4, §5, §6, §7, §8, §9, §10, §11, §12, §13, §14, §15

A549/ATCC = assay: NCI 60 single concentration growth inhibition; type: cell-based, human; details: Homo sapiens, Non-small cell lung cancer, read-out: GI%
Protocol: as §1, §2, §3, §4, §5, §6, §7, §8, §9, §10, §11, §12, §13, §14, §15

OVCAR-5 = assay: NCI 60 single concentration growth inhibition; type: cell-based, human; details: Homo sapiens, OVCAR-5, Ovarian cancer, read-out: GI%
Protocol: as §1, §2, §3, §4, §5, §6, §7, §8, §9, §10, §11, §12, §13, §14, §15

SF-268 = assay: NCI 60 single concentration growth inhibition; type: cell-based, human; details: Homo sapiens, SF-268, CNS cancer, read-out: GI%
Protocol: as §1, §2, §3, §4, §5, §6, §7, §8, §9, §10, §11, §12, §13, §14, §15

PC-3 = assay: NCI 60 single concentration growth inhibition; type: cell-based, human; details: Homo sapiens, PC-3, Prostate cancer, read-out: GI%
Protocol: as §1, §2, §3, §4, §5, §6, §7, §8, §9, §10, §11, §12, §13, §14, §15

ACHN = assay: NCI 60 single concentration growth inhibition; type: cell-based, human; details: Homo sapiens, Renal cancer, read-out: GI%
Protocol: as §1, §2, §3, §4, §5, §6, §7, §8, §9, §10, §11, §12, §13, §14, §15

KM12 = assay: NCI 60 single concentration growth inhibition; type: cell-based, human; details: Homo sapiens, KM12, Colon cancer, read-out: GI%
Protocol: as §1, §2, §3, §4, §5, §6, §7, §8, §9, §10, §11, §12, §13, §14, §15

SF-295 = assay: NCI 60 single concentration growth inhibition; type: cell-based, human; details: Homo sapiens, SF-295, CNS cancer, read-out: GI%
Protocol: as §1, §2, §3, §4, §5, §6, §7, §8, §9, §10, §11, §12, §13, §14, §15

MDA-MB-435 = assay: NCI 60 single concentration growth inhibition; type: cell-based, human; details: Homo sapiens, MDA-MB-435, Melanoma, read-out: GI%
Protocol: as §1, §2, §3, §4, §5, §6, §7, §8, §9, §10, §11, §12, §13, §14, §15

[1] = tested on: NCI 60 cancer cell line panel; assay: NCI 60 single concentration growth inhibition, panel mean; type: cell-based; details: Homo sapiens, mean over NCI 60 panel, read-out: Mean GI%
Protocol: as §1, §2, §3, §4, §5, §6, §7, §8, §9, §10, §11, §12, §13, §14, §15

SMILES | inhibition at 10 µM (RXF 393) | inhibition at 10 µM (UACC-257) | inhibition at 10 µM (EKVX) | inhibition at 10 µM (MCF7) | inhibition at 10 µM (BT-549) | inhibition at 10 µM (T-47D) | inhibition at 10 µM (MOLT-4) | inhibition at 10 µM (OVCAR-8) | inhibition at 10 µM (SN12C) | inhibition at 10 µM (RPMI-8226) | inhibition at 10 µM (786-0) | inhibition at 10 µM (M14) | inhibition at 10 µM (NCI-H226) | inhibition at 10 µM (A549/ATCC) | inhibition at 10 µM (OVCAR-5) | inhibition at 10 µM (SF-268) | inhibition at 10 µM (PC-3) | inhibition at 10 µM (ACHN) | inhibition at 10 µM (KM12) | inhibition at 10 µM (SF-295) | other results
COc1ccc(-c2nc3cc(Cl)c(Cl)cc3n2CC(=O)NN=Cc2cccc(OCC(=O)O)c2)cc1 [Compound 10e, 2-(3-((2-(2-(5,6-Dichloro-2-(4-methoxyphenyl)-1H-benzo[d]imidazol-1-yl)acetyl)hydrazono)methyl)phenoxy)acetic acid] | < 5% | < 5% | < 5% | 13.6% | < 5% | < 5% | < 5% | < 5% | < 5% | < 5% | < 5% | 6.12% | < 5% | < 5% | < 5% | < 5% | < 5% | < 5% | < 5% | < 5% | inhibition at 10 µM (MDA-MB-435): < 5%; inhibition at 10 µM [1]: < 5%
COc1ccc(-c2nc3cc(Cl)c(Cl)cc3n2CC(=O)NN=Cc2ccc(OCC(=O)O)cc2)cc1 [Compound 10f, 2-(4-((2-(2-(5,6-Dichloro-2-(4-methoxyphenyl)-1H-benzo[d]imidazol-1-yl)acetyl)hydrazono)methyl)phenoxy)acetic acid] | < 5% | < 5% | 5.96% | 18.9% | < 5% | < 5% | < 5% | < 5% | < 5% | < 5% | < 5% | < 5% | < 5% | < 5% | < 5% | < 5% | 8.65% | < 5% | < 5% | < 5% | inhibition at 10 µM (MDA-MB-435): < 5%; inhibition at 10 µM [1]: < 5%
COC(=O)COc1cccc(C=NNC(=O)Cn2c(-c3ccc(OC)cc3)nc3cc(Cl)c(Cl)cc32)c1 [Compound 10g, Methyl-2-(3-((2-(2-(5,6-dichloro-2-(4-methoxyphenyl)-1H-benzo[d]imidazol-1-yl)acetyl)hydrazono)methyl)phenoxy)acetate] | 32.9% | < 5% | 13.2% | 31.9% | < 5% | 55.9% | 30.4% | 84.2% | 40.7% | < 5% | 10% | < 5% | 8% | < 5% | < 5% | < 5% | 36.9% | < 5% | < 5% | < 5% | inhibition at 10 µM (MDA-MB-435): 11.9%; inhibition at 10 µM [1]: 14.6%
